Laboratory results: US20050238734A1, “Detection of nitrosylated proteins” (University of Vermont and State Agricultural College, priority 2004, published 2005)

Experiments:
C10 cells = assay: In situ detection of S-nitrosylated proteins in intact cells (biotin derivatization, streptavidin-FITC, confocal microscopy); assay type: cell-based, mouse
Procedure: A line of spontaneously transformed mouse lung alveolar type II epithelial cells (C10) was used in some experiments, as described below. C10 cells were cultured in CMRL1066 medium containing 10% fetal bovine serum (FBS, GIBCO). In experiments involving microscopic analysis, the cells were grown on glass cover slips. At about one hour prior to exposure to a test agent, the medium was switched to phenol red free DMEM/F12 containing 0.5% FBS. Some cells were exposed to S-nitroso-glutathione (GSNO) or S-nitroso-N-acetyl penicillamine (SNAP) for about 1 hour, in the presence of an equimolar concentration of freshly prepared L-cysteine. To monitor S-nitrosylation in response to NOS2 activation, the cells were treated with 10 ng/ml TNF alpha (TNFα) and 100 U/ml interferon gamma (IFNγ), for about 24 hours. Incubation with L-N-monomethyl arginine (L-NMMA) for about 16 hours was used to inhibit endogenous NO production and D-NMMA (D-N-monomethyl arginine) was used as a control. Nuclear export was blocked by leptomycin B (5 ng/ml, exposure for about 12 hours). All experiments were performed in duplicate and were repeated at least three times.
To evaluate the localization of S-nitrosylated proteins in intact cells, the biotin derivatization method described above was used in combination with fluorophore labeling and visualized using confocal microscopy. Cells grown on cover slips were rinsed with PBS containing 0.1 mM EDTA and 0.01 mM neocuproine, and fixed in 4% PFA (paraformaldehyde) for 20 minutes at RT. The cells were permeabilized, and protein SH groups were blocked using HEN buffer containing 2.5% SDS, 0.5% CHAPS, and 20 mM MMTS (methylmethanethiosulfonate) for 20 min at 55° C. with constant shaking. After removal of MMTS, the cells were incubated with 1 mM sodium ascorbate and 0.4 mM biotin-HPDP (N-[6-(biotinamido)hexyl]-3′-(2′-pyridyldithio)propionamide) for about an hour at RT, and the cover slips were then incubated overnight with streptavidin-FITC at 4° C. Blocking was performed using 20 mM NEM for 30 minutes at 4° C., followed by incubation with 0.05 mM MPB and 1 mM sodium ascorbate for 1 hour at RT. The nuclei were stained with 10 microgram/ml PI (propidium iodide) for 30 minutes at RT. The cells were analyzed by confocal microscopy (magnification 40×) using an Olympus BX50 microscope coupled to a Bio-Rad (Hercules Calif.) MRC 1024 confocal scanning laser microscope system. Control experiments were also performed in which blocking of SH groups was omitted, or in which 100 micromolar HgCl2 was added prior to blocking of SH groups with MMTS or NEM. To assess the contribution of endogenous biotinylated proteins, the biotin-label was omitted in some control cover slips. All manipulations were performed in the dark. […]

RelA (p65) = RelA (p65) immunostaining, cytoplasmic versus nuclear localization; assay type: cell-based, mouse
Procedure: FIGS. 4G and 4H illustrates an assessment of the presence of cytoplasmic protein. C10 cells were mock-treated (sham) (FIG. 4G) or stimulated with TNF alpha for 30 minutes, and submitted to the biotinylation protocols similar to those described above with respect to FIG. 1. RelA (p65) was detected using specific antibodies (Santa Cruz).
FIGS. 6A and 6C illustrate cells that were incubated with leptomycin B (5 ng/ml) for about 12 hours, followed by biotin derivatization, incubation with streptavidin-FITC, and analysis by confocal microscopy. […] These findings thus support the notion that S-nitrosylation occurs in proteins that are regulated by nuclear trafficking.
To ensure that the cytoplasmic targets were still present after this procedure, the presence of RelA was evaluated in sham or TNF alpha-treated cells. RelA, a subunit of the transcription factor, nuclear factor kappa B, is normally present in the cytoplasm and is translocated into the nucleus upon exposure to TNF alpha. […] In fact, increased S-nitrosylation of cytoplasmic proteins was observed after induction of NOS2 activity.

wt HA-IKKβ = molecular target: T1, wt HA-IKKβ (Homo sapiens, UniProt O14920); assay: TNFα-stimulated kinase activity of transfected wt HA-IKKβ in C10 cells; assay type: cell-based; settings: TNFα-stimulated enzymatic activity
T1 construct: expressed in transfected cells; host or cells: C10 mouse lung epithelial cells; plasmid a gift of Dr. Michael Karin
T1 sequence (O14920 1-756): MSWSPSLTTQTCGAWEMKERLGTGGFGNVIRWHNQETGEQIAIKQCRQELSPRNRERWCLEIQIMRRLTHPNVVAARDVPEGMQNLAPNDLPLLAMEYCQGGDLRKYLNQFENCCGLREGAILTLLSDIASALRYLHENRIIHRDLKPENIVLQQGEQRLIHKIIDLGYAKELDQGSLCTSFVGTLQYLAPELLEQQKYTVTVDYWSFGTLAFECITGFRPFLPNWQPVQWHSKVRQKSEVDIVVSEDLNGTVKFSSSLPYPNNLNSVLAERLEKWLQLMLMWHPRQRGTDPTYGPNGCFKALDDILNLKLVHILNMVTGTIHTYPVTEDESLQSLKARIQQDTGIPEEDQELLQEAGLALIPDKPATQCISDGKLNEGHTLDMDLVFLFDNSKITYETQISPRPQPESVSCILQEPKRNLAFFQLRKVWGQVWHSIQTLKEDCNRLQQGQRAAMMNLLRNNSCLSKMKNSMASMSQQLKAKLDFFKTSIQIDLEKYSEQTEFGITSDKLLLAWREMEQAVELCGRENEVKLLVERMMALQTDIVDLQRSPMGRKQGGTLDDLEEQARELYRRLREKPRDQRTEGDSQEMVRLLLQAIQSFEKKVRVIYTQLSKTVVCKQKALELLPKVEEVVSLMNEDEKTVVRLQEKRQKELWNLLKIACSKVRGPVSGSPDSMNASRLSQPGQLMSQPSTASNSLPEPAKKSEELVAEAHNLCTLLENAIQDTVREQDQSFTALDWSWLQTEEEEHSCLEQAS
Procedure: The cells were exposed to test agents and at indicated times, transferred to ice, washed twice with cold PBS, and lysed in buffer containing 50 mM HEPES, 150 mM NaCl, 1 mM EDTA, 2 mM MgCl2, 10 mM Na3VO4, 1 mM phenylmethylsulfonyl fluoride, 0.1% Nonidet P-40, 10 μg/ml leupeptin, 1% aprotinin, 250 μM DTT and 100 μM NaF. The lysates were cleared by centrifugation at 14,000 rpm, 4° C. for 10 min. Protein concentrations were determined and the IKK complex was immunoprecipitated with an IKKγ antibody (Santa Cruz) at 4° C. for 1.5 h using protein G agarose beads. The precipitates were washed once with lysis buffer and twice with kinase buffer (20 mM HEPES, 20 mM β-glycerolphosphate, 1 mM MnCl2, 5 mM MgCl2, 2 mM NaF and 250 μM DTT). The kinase reaction was performed using 1 μg glutathione-S transferase (GST)-IκBα as a substrate, provided by Dr. Rosa Ten (Mayo Clinic, Rochester, Minn.), and 5 μCi γ^32P-adenosine triphosphate at 30° C. for 30 min. Kinase assays were performed in presence of 250 μM DTT, the minimal concentration necessary in order to maintain maximal TNFα-stimulated activity. The reactions were stopped by the addition of 2× Laemmli sample buffer. […] In separate experiments, the immunoprecipitated IKK complex or JNK1 from TNFα-stimulated cells was exposed to SNAP or GSNO for 15 min in lysis buffer in vitro prior to assessment of kinase activity. […]

IKKβ [1] = molecular target: T2, IKKβ (Homo sapiens, UniProt O14920); assay: Biotin derivatization (biotin switch) of IKKβ in Jurkat T cells; assay type: cell-based
T2 construct: IKKβ was immunopurified from TNFα-stimulated Jurkat T cells treated with SNO; endogenous in cells; host or cells: Jurkat T cells
T2 sequence (O14920 1-756): T1 sequence (O14920 1-756)
Procedure: The detection of S-nitrosylated proteins was performed via a biotin switch method as follows. Following treatments, the cells were rinsed 2 times with PBS containing 0.1 mM EDTA and 0.01 mM neocuproine and lysed in HEN buffer (25 mM HEPES, pH 7.7, 0.1 mM EDTA, 0.01 mM neocuproine) containing 0.5% CHAPS, 0.1% SDS and 20 mM N-ethylmaleimide (NEM) at 4° C. for 30 min in order to block free thiols. The lysates were cleared by centrifugation at 14,000 g, 4° C. for 10 min and excess NEM was removed by protein precipitation using cold acetone. The protein pellets were resuspended in HENS buffer (HEN 1% SDS), and the SNO bonds were decomposed by adding 20 mM sodium ascorbate. The resulting free thiols were reacted with 0.05 mM sulfhydryl-specific biotinylating agent, N-(3-malemidylpropionyl)biocytin (MPB, Molecular Probes) for 30 min at room temperature, resulting in biotinylation of SNO. […] Biotinylated IKKβ was detected on the membrane using horseradish peroxidase-linked streptavidin. […]
A biotin derivatization method was also used to assess whether the IKKβ subunit is directly targeted by S-nitrosylation. […] IKKβ was subsequently immunoprecipitated from the lysates and its biotinylation was assessed using streptavidin-HRP on a western blot. […]

IKKβ [2] = molecular target: T2, IKKβ; assay: SNO content of immunopurified IKKβ by chemiluminescence; assay type: cell-based; settings: Jurkat T cells exposed to L-CSNO and TNFα
Procedure: The total cellular SNO concentration (protein-bound plus free) was measured in lysates of cells treated with SNO in presence or absence of L-or D-cys. After 3 washes with PBS, the cells were lysed in the same buffer as was used for the biotin switch method. […] The amount of NO released from samples was estimated from a standard curve generated by injection of L-CSNO stock solutions. IKKβ was immunoprecipitated from Jurkat T cell lysates, using a monoclonal IKKβ antibody and protein G-agarose beads. After washing the immunoprecipitates 3 times with HEN buffer containing 50 mM NaCl to minimize co-associating proteins, the antigen-antibody complexes were removed from the beads by three 10 min incubations in 50 μl of 100 mM glycine pH 3.0 at 4° C. The eluates were treated with 0.6% sulfanilamide prior to the assessment of the SNO content via chemiluminescence, as described before. As a control, some lysates or immunoprecipitates were treated with 4.4 mM HgCl2 for 10 min at RT, followed by 20 min incubation at 4° C., and 10 min incubation with sulfanilamide at RT. To confirm that IKKβ was the predominant protein immunoprecipitated under these conditions, Laemmli sample buffer was added to the immunoprecipitate, samples were boiled, and evaluated on a silver-stained gel. All experiments were repeated at least two times and similar results were obtained. […]

OO [H2O2, hydrogen peroxide]
staining pattern (biotinylation) (C10 cells; 500 micromolar, 15 minutes): failed to alter

CCC(=C/[C@H](C)C/C=C/C(C)=C/[C@@H](C)C(=O)[C@@H](C)[C@H](O)[C@@H](C)C/C(C)=C/C(=O)O)/C=C/[C@@H]1OC(=O)C=C[C@@H]1C [leptomycin B]
biotinylation in the nuclear compartment (C10 cells; 5 ng/ml, about 12 hours): enhanced
nuclear sequestration of RelA (RelA (p65); 5 ng/ml, about 12 hours): enhanced

N[C@@H](CSN=O)C(=O)O [L-CSNO]
activity of wt HA-IKKβ (wt HA-IKKβ): inhibited
S-nitrosylation of IKKβ (biotinylation) (IKKβ [1]): increase
SNO content of IKKβ (IKKβ [2]): marked increase

TNF alpha
RelA presence in nucleus (RelA (p65); 30 minutes, dual staining with PI): enhanced nuclear presence
S-nitrosylation of IKKβ (biotinylation) (IKKβ [1]): decreased

CC(=O)N[C@H](C(=O)O)C(C)(C)SN=O [SNAP, S-nitroso-N-acetyl penicillamine]
biotinylation (S-nitrosylated proteins) in intact cells (C10 cells; 1 mM, 1 hour): enhanced
